The structures appear in SMILES notation.

We go through 15 compounds from patent publication US12590086B2, “3-((1H-pyrazol-4-yl)methyl)-6′-(phenyl)-2H-(1,2′-bipyridin)-2-one derivatives and related compounds as GPR139 antagonists for use in a method of treatment of e.g. depression” (TAKEDA PHARMACEUTICAL COMPANY LIMITED, priority 2020, dated 2026).

The first assay deals with T1, human GPR139 (Homo sapiens, UniProt Q6DWJ6).
T1 construct: expressed in transfected cells; host or cells: CHO-TREx (Life Technologies) cells, expression induced with doxycycline
T1 sequence (Q6DWJ6 1-353): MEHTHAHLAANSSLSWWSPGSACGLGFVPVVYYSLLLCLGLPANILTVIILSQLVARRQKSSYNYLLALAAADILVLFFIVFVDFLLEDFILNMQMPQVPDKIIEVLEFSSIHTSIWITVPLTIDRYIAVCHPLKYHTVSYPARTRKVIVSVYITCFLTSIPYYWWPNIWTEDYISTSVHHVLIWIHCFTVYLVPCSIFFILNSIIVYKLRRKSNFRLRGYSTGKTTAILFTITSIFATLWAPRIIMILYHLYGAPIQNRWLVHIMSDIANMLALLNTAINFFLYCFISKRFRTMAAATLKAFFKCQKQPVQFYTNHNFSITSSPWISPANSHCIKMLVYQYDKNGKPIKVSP
Put plainly: Inhibition rate of the amount of IP1 in GPR139-expressed CHO cells (inverse agonist assay, IP-ONE HTRF). In kind it is cell-based. Particulars: 30 μM compound; CHO-TREx cells expressing human GPR139; vehicle set to 0%, IP1 concentration 0 set to 100%; read-out: inhibition rate of the amount of IP1. As to the method: Measurement of the inhibition rate of the amount of IP1 in 30 µM of the compound of Reference Example 1 in GPR139-expressed CHO cells
Changes in the amount of IP1 in GPR139-expressed CHO cells were measured in order to evaluate the activity of the compound via GPR139. GPR139 is a Gq-coupled receptor which varies intracellular calcium (Liu C et al., Mol Pharmacol. 2015 November; 88(5):911-25), so the amount of IP1, which is a stable metabolite of the second messenger IP3, changes due to activity regulation of GPR139. GPR139 is considered to be […] when expressed recombinantly in mammal cells, so a compound having a GPR139 receptor inverse agonist action is expected to reduce the amount of IP1 production.
The measurement of IP1 was made using an IP-ONE HTFR assay kit (cis-bio) and CHO-TREx (Life Technologies) cells stably transfected with GPR139. The CHO-TREx cells expressed human GPR139 with a tetracycline-inducing element. The cells were cultured in a medium containing F12K and 10% tetracycline-free FBS, and the expression of human GPR139 was induced over the course of 17 hours under conditions of 37° C. and 5% CO2 in the presence of 2 μg/mL of doxycycline (Clontech, 631311) in the growth medium on the day before assay. On the day of the test, after the cells were washed with 10 mL of PBS, the cells were detached with TrypLE Express (Life Technologies) and centrifuged at 1,000 rpm to form pellets, and a cell suspension was then prepared using a stimulation buffer (cis-bio, included in the IP-ONE HTRF assay kit).
The compound was diluted with the stimulation buffer, and 4 μL was added to a 384-well white assay plate (Greiner). The cell suspension was added so that there were 2000 cells per well, and the assay plate was left to stand for 40 minutes at 37° C. Equal amounts of iP1-d2 and Ab-Crp solutions (both available from cis-bio, included in the IP-ONE HTRF assay kit) prepared with a lysis buffer (cis-bio, included in the IP-ONE HTRF assay kit) were mixed, and 4 μL was added to the assay plate and left to stand for one hour at room temperature. After the fluorescence strengths of two wavelengths were measured by the HTRF settings of Envision (PerkinElmer), the value of Ratio=((Signal 665 nm)/(Signal 615 nm))×10000 was calculated.
Measurement of the Inhibition Rate of the Amount of IP1 in GPR139-Expressed CHO Cells (Inverse Agonist Assay)
The activities of the compounds of Examples 20 to 33 were expressed as relative values in Table 2 by measuring the inhibition rate of the amount of IP1 with the same method as in Test Example 1 and defining the inhibition rate of the amount of IP1 of the compound of Reference Example 1 in Test Example 1 as 100%.
In the case of `CCn1cc(Cn2ccn(-c3cc(N4CCO[C@H](C)C4)cc(C(F)(F)F)c3F)c2=O)cn1` [Reference Example 1, 1-[(1-Ethyl-1H-pyrazole-4-yl)methyl]-3-{2-fluoro-5-[(2R)-2-methylmorpholine-4-yl]-3-(trifluoromethyl)phenyl}-1,3-dihydro-2H-imidazole-2-one, reference compound], the inhibition at 30 µM was 84%.

Still in this assay, the particulars now being: relative value; inhibition rate of Reference Example 1 in Test Example 1 defined as 100%; GPR139-expressed CHO cells; read-out: IP1 Inhibition Rate at 30 μM.
Consider `CCn1cc(Cc2cccn(-c3cc(N4CCO[C@H](C)C4)cc(C4CC4)c3F)c2=O)cn1` [Example 20, 1-{3-cyclopropyl-2-fluoro-5-[(2R)-2-methylmorpholin-4-yl]phenyl}-3-[(1-ethyl-1H-pyrazol-4-yl)methyl]pyridin-2(1H)-one], for which the inhibition at 30 µM worked out at 96%.
Same read-out and setting: the value for `CCn1cc(Cc2cccn(-c3cc(N4CCOC(C)(C)C4)cc(C4CC4)c3F)c2=O)cn1` [Example 21, 1-[3-cyclopropyl-5-(2,2-dimethylmorpholin-4-yl)-2-fluorophenyl]-3-[(1-ethyl-1H-pyrazol-4-yl)methyl]pyridin-2(1H)-one] was 96%; that for `CCn1cc(Cc2cccn(-c3cc(OC4CCOCC4)cc(C4CC4)c3F)c2=O)cn1` [Example 22, 1-{3-cyclopropyl-2-fluoro-5-[(oxan-4-yl)oxy]phenyl}-3-[(1-ethyl-1H-pyrazol-4-yl)methyl]pyridin-2(1H)-one] was 98%.
Turning to `CCn1cc(Cc2cccn(-c3cc(OC4CCOCC4)cc(Br)c3F)c2=O)cn1` [Example 23, 1-{3-bromo-2-fluoro-5-[(oxan-4-yl)oxy]phenyl}-3-[(1-ethyl-1H-pyrazol-4-yl)methyl]pyridin-2(1H)-one], the inhibition at 30 µM amounted to 100%.
In the case of `CCn1cc(Cc2cccn(-c3cc(N4CCO[C@H](C)C4)cc(OC(F)(F)F)c3F)c2=O)cn1` [Example 24, 3-[(1-ethyl-1H-pyrazol-4-yl)methyl]-1-{2-fluoro-5-[(2R)-2-methylmorpholin-4-yl]-3-(trifluoromethoxy)phenyl}pyridin-2(1H)-one], the inhibition at 30 µM turned out to be 98%.
As for `CC(C)n1cc(Cc2cccn(-c3cc(N4CCO[C@H](C)C4)cc(C4CC4)c3F)c2=O)cn1` [Example 25, 1-{3-cyclopropyl-2-fluoro-5-[(2R)-2-methylmorpholin-4-yl]phenyl}-3-{[1-(propan-2-yl)-1H-pyrazol-4-yl]methyl}pyridin-2(1H)-one], the inhibition at 30 µM turned out to be 95%.
Same read-out and setting: with `CCn1cc(Cc2c(F)ccn(-c3cc(N4CCO[C@H](C)C4)cc(C4CC4)c3F)c2=O)cn1` [Example 26, 1-{3-cyclopropyl-2-fluoro-5-[(2R)-2-methylmorpholin-4-yl]phenyl}-3-[(1-ethyl-1H-pyrazol-4-yl)methyl]-4-fluoropyridin-2(1H)-one] the figure was 97%; with `CCn1cc(Cc2cccn(-c3cc(N4CCO[C@H](C)C4)cc(C(C)C)c3F)c2=O)cn1` [Example 27, 3-[(1-ethyl-1H-pyrazol-4-yl)methyl]-1-{2-fluoro-5-[(2R)-2-methylmorpholin-4-yl]-3-(propan-2-yl)phenyl}pyridin-2(1H)-one], 96%.
With `CCn1cc(Cc2cccn(-c3cc(N4CCO[C@H](C)C4)cc(CC(F)(F)F)c3F)c2=O)cn1` [Example 28, 3-[(1-ethyl-1H-pyrazol-4-yl)methyl]-1-{2-fluoro-5-[(2R)-2-methylmorpholin-4-yl]-3-(2,2,2-trifluoroethyl)phenyl}pyridin-2(1H)-one], the inhibition at 30 µM was 100%.
Regarding `CCn1cc(Cc2ccc(C)n(-c3cc(C4CC4)cc(N4CCO[C@H](C)C4)c3)c2=O)cn1` [Example 29, 1-{3-cyclopropyl-5-[(2R)-2-methylmorpholin-4-yl]phenyl}-3-[(1-ethyl-1H-pyrazol-4-yl)methyl]-6-methylpyridin-2(1H)-one], the inhibition at 30 µM was 102%.
On the same count and under the same terms, the value for `CCn1cc(Cc2cccn(-c3cc(N4CCC(F)(F)CC4)cc(C4CC4(F)F)c3F)c2=O)cn1` (stereo not drawn) [Example 30, 1-[3-(2,2-difluorocyclopropyl)-5-(4,4-difluoropiperidin-1-yl)-2-fluorophenyl]-3-[(1-ethyl-1H-pyrazol-4-yl)methyl]pyridin-2(1H)-one] was 97%; that for `CCn1cc(Cc2ccc(F)n(-c3cc(C4CC4)cc(N4CCO[C@H](C)C4)c3)c2=O)cn1` [Example 31, 1-{3-cyclopropyl-5-[(2R)-2-methylmorpholin-4-yl]phenyl}-3-[(1-ethyl-1H-pyrazol-4-yl)methyl]-6-fluoropyridin-2(1H)-one] was 100%.
Still for that read-out and setting: the value for `CCn1cc(Cc2cc(C)cn(-c3cc(N4CCO[C@H](C)C4)cc(C4CC4)c3F)c2=O)cn1` [Example 32, 1-{3-cyclopropyl-2-fluoro-5-[(2R)-2-methylmorpholin-4-yl]phenyl}-3-[(1-ethyl-1H-pyrazol-4-yl)methyl]-5-methylpyridin-2(1H)-one] was 99%; that for `CCn1cc(Cc2c(C)ccn(-c3cc(N4CCO[C@H](C)C4)cc(C4CC4)c3F)c2=O)cn1` [Example 33, 1-{3-cyclopropyl-2-fluoro-5-[(2R)-2-methylmorpholin-4-yl]phenyl}-3-[(1-ethyl-1H-pyrazol-4-yl)methyl]-4-methylpyridin-2(1H)-one] was 96%.

Broadly, the inhibition is the drop in the measured response relative to a control, in per cent.
